One test addresses T1, VDAC1 (Rattus norvegicus, UniProt Q9Z2L0).
T1 construct: from tissue; host or cells: rat liver mitochondria (inferred)
The experiment in a line: mtDNA efflux from liposomes reconstituted with VDAC1. In kind it is biochemical. The note with it: VDAC1-containing mtDNA-loaded liposomes.

The subject of a further test is EndoG−/− MEFs. Put plainly: Quantification of cytosolic mtDNA (cmtDNA) in EndoG−/− MEFs. In kind it is cell-based, mouse. The note with it: VBIT-4 (10 μM), real-time PCR. As to the method: MEFs were resuspended in 170 μl digitonin buffer containing 150 mM NaCl, 50 mM HEPES pH 7.4, and 25 μg/ml digitonin (EMD Millipore Corp). The homogenates were incubated on a rotator for 10 min at room temperature, followed by centrifugation at 16,000 g for 25 min at 4° C. A 1:20 dilution of the supernatant (cmtDNA) was used for real-time RT-PCR. The pellet was resuspended in 340 μl lysis buffer containing 5 mM EDTA and proteinase K (Qiagen) and incubated at 55° C. overnight. The digested pellet was diluted with water (1:20 to 1:100) and heated at 95° C. for 20 min to inactivate proteinase K, and the sample was used for real-time PCR. The primers used were as follow (5′-3′): D-loop1 forward (SEQ ID NO:64), and reverse (SEQ ID NO:65); D-loop2 forward (SEQ ID NO:66), and reverse (SEQ ID NO:67); D-loop3 forward (SEQ ID NO:68), and reverse (SEQ ID NO:69). The cmtDNA in the supernatant was normalized to the total mitochondrial DNA in the pellet for each sample.

T1 sequence (Q9Z2L0 whole entry): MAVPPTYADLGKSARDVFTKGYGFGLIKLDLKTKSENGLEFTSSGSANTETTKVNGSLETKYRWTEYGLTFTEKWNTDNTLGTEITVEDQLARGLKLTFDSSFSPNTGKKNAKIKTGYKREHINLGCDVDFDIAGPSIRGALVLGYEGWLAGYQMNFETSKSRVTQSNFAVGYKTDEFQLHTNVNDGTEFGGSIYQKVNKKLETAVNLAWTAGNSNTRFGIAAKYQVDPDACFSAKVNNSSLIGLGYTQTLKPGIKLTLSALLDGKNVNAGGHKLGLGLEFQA

With `O=C(CC(CO)N1CCN(c2ccc(OC(F)(F)F)cc2)CC1)Nc1ccc(Cl)cc1` (centres unmarked) [VBIT-4, N-(4-chlorophenyl)-4-hydroxy-3-(4-(4-(trifluoromethoxy)phenyl)-piperazin-1-yl)butanamide], the “mtDNA release from liposomes” value at VDAC1 is reported as “decreased”. For the same compound, in the test with EndoG−/− MEFs, the cmtDNA entry is listed as “decreased”.

(Values after patent US20220023381A1, “VDAC INHIBITORS FOR TREATING AUTOIMMUNE DISEASES” (NATIONAL INSTITUTE FOR BIOTECHNOLOGY IN THE NEGEV LTD., priority 2018, published 2022).)
